Data taken from paper PMC12090182, “Repurposing of the RIPK1-Selective Benzo[1,4]oxazepin-4-one Scaffold for the Development of a Type III LIMK1/2 Inhibitor” (ACS Chemical Biology, 2025).
Where two headings read alike, the source gives them in different places.

Legend:
Assay in all cases: biochemical
Format in all cases: binding
[1] = target: 468 kinases including some pathogenic mutants (Homo sapiens, UniProt Q96PY6); settings: NEK1 (Entrez NEK1), 1000 nM; read-out: Percent Control
[2] = target: 468 kinases including some pathogenic mutants (Homo sapiens, UniProt P51957); settings: NEK4 (Entrez NEK4), 1000 nM; read-out: Percent Control
[3] = target: 468 kinases including some pathogenic mutants (Homo sapiens, UniProt Q13523); settings: PRP4 (Entrez PRPF4B), 1000 nM; read-out: Percent Control
[4] = target: 468 kinases including some pathogenic mutants (Homo sapiens, UniProt Q8NFD2); settings: ANKK1 (Entrez ANKK1), 100 nM; read-out: Percent Control
[5] = target: 468 kinases including some pathogenic mutants (Homo sapiens, UniProt P00519, Q252H)
[6] = target: 468 kinases including some pathogenic mutants (Homo sapiens, UniProt Q13131); settings: AMPK-alpha1 (Entrez PRKAA1), 100 nM; read-out: Percent Control
[7] = target: 468 kinases including some pathogenic mutants (Homo sapiens, UniProt Q04771); settings: ACVR1 (Entrez ACVR1), 100 nM; read-out: Percent Control
[8] = target: 468 kinases including some pathogenic mutants (Homo sapiens, UniProt Q96PN8); settings: TSSK3 (Entrez TSSK3), 1000 nM; read-out: Percent Control
[9] = target: 468 kinases including some pathogenic mutants (Homo sapiens, UniProt Q6PHR2); settings: ULK3 (Entrez ULK3), 100 nM; read-out: Percent Control
[10] = target: 468 kinases including some pathogenic mutants (Homo sapiens, UniProt P48730); settings: CSNK1D (Entrez CSNK1D), 100 nM; read-out: Percent Control
[11] = target: 468 kinases including some pathogenic mutants (Homo sapiens, UniProt O94921); settings: PFTK1 (Entrez CDK14), 100 nM; read-out: Percent Control
[12] = target: 468 kinases including some pathogenic mutants (Homo sapiens, UniProt P36896); settings: ACVR1B (Entrez ACVR1B), 100 nM; read-out: Percent Control
[13] = target: 468 kinases including some pathogenic mutants (Homo sapiens, UniProt Q9Y4K4); settings: MAP4K5 (Entrez MAP4K5), 100 nM; read-out: Percent Control
[14] = target: 468 kinases including some pathogenic mutants (Homo sapiens, UniProt Q8N5S9); settings: CAMKK1 (Entrez CAMKK1), 100 nM; read-out: Percent Control
[15] = target: 468 kinases including some pathogenic mutants (Homo sapiens, UniProt O95747); settings: OSR1 (Entrez OXSR1), 100 nM; read-out: Percent Control
[16] = target: 468 kinases including some pathogenic mutants (Homo sapiens, UniProt Q9NYY3); settings: PLK2 (Entrez PLK2), 1000 nM; read-out: Percent Control
[17] = target: 468 kinases including some pathogenic mutants (Homo sapiens, UniProt P29322); settings: EPHA8 (Entrez EPHA8), 100 nM; read-out: Percent Control
[18] = target: 468 kinases including some pathogenic mutants (Homo sapiens, UniProt P08631); settings: HCK (Entrez HCK), 100 nM; read-out: Percent Control
[19] = target: 468 kinases including some pathogenic mutants (Homo sapiens, UniProt Q6ZWH5); settings: NEK10 (Entrez NEK10), 100 nM; read-out: Percent Control
[20] = target: 468 kinases including some pathogenic mutants (Homo sapiens, UniProt Q13557); settings: CAMK2D (Entrez CAMK2D), 100 nM; read-out: Percent Control
[21] = target: 468 kinases including some pathogenic mutants (Homo sapiens, UniProt Q15303); settings: ERBB4 (Entrez ERBB4), 100 nM; read-out: Percent Control
[22] = target: 468 kinases including some pathogenic mutants (Homo sapiens, UniProt P23458); settings: read-out: Percent Control
[23] = target: 468 kinases including some pathogenic mutants (Homo sapiens, UniProt P10721, A829P); settings: read-out: Percent Control
[24] = target: 468 kinases including some pathogenic mutants (Homo sapiens, UniProt Q8WXR4); settings: MYO3B (Entrez MYO3B), 100 nM; read-out: Percent Control
[25] = target: 468 kinases including some pathogenic mutants (Homo sapiens, UniProt P31152); settings: ERK4 (Entrez MAPK4), 100 nM; read-out: Percent Control
[26] = target: 468 kinases including some pathogenic mutants (Homo sapiens, UniProt O75116); settings: ROCK2 (Entrez ROCK2), 100 nM; read-out: Percent Control
[27] = target: 468 kinases including some pathogenic mutants (Homo sapiens, UniProt P80192); settings: MLK1 (Entrez MAP3K9), 1000 nM; read-out: Percent Control
[28] = target: 468 kinases including some pathogenic mutants (Homo sapiens, UniProt P04049); settings: RAF1 (Entrez RAF1), 1000 nM; read-out: Percent Control

468 kinases including some pathogenic mutants (Homo sapiens, UniProt P23458), sequence (P23458 whole entry, stated change not applied): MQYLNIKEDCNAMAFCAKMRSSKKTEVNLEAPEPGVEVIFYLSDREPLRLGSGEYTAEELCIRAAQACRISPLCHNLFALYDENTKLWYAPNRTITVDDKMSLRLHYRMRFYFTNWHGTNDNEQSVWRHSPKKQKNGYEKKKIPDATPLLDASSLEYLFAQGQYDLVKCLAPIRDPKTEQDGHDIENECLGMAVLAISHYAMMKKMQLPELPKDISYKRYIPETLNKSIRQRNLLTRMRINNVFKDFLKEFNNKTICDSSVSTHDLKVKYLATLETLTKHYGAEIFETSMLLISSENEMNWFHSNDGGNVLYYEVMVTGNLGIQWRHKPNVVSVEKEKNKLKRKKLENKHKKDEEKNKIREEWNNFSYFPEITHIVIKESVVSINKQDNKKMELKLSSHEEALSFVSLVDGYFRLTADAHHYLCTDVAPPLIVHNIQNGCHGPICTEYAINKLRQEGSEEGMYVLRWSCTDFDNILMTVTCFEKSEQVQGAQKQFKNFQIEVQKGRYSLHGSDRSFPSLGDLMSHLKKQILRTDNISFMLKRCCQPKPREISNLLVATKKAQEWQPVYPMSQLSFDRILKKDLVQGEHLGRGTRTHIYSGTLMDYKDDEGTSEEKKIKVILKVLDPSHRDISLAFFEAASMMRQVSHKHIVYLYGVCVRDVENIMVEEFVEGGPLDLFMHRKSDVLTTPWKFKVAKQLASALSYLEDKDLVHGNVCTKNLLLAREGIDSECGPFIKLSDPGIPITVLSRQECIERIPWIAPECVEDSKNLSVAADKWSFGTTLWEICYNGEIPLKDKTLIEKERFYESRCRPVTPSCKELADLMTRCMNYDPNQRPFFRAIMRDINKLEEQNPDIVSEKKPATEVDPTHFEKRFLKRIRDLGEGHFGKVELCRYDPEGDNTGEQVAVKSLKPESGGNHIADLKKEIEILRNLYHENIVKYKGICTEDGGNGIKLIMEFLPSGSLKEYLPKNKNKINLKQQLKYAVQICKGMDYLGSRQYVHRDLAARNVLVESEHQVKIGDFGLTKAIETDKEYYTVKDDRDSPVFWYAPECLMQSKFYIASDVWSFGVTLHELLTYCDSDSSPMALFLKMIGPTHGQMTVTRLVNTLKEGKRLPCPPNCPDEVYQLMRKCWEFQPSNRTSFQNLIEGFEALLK
468 kinases including some pathogenic mutants (Homo sapiens, UniProt Q13523), sequence (Q13523 whole entry, change not shown): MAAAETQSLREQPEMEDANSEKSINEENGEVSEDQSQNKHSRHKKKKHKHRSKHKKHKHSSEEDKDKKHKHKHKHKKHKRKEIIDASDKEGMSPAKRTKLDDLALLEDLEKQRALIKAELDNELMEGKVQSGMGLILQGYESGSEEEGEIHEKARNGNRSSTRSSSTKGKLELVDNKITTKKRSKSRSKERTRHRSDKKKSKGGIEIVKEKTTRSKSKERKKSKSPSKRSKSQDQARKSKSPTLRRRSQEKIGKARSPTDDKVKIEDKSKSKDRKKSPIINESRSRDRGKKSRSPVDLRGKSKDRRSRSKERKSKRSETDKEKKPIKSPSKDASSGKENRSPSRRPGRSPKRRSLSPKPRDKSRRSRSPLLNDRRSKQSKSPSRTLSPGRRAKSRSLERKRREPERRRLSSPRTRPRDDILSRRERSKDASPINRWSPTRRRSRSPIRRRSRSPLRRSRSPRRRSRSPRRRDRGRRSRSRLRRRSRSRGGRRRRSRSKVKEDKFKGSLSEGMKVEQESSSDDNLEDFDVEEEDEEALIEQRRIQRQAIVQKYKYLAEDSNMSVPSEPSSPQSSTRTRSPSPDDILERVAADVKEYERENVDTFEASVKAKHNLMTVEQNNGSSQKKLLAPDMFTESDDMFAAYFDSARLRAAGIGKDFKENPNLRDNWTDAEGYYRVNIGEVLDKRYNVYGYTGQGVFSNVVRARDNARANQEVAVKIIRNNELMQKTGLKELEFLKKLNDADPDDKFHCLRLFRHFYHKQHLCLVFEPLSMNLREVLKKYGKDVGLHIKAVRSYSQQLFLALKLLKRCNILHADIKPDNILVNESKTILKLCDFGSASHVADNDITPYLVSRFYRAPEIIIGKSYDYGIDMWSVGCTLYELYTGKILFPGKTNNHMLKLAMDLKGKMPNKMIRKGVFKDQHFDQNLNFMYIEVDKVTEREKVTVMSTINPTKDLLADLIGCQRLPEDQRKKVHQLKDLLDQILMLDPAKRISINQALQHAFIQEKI
468 kinases including some pathogenic mutants (Homo sapiens, UniProt P08631), sequence (P08631 whole entry, change not shown): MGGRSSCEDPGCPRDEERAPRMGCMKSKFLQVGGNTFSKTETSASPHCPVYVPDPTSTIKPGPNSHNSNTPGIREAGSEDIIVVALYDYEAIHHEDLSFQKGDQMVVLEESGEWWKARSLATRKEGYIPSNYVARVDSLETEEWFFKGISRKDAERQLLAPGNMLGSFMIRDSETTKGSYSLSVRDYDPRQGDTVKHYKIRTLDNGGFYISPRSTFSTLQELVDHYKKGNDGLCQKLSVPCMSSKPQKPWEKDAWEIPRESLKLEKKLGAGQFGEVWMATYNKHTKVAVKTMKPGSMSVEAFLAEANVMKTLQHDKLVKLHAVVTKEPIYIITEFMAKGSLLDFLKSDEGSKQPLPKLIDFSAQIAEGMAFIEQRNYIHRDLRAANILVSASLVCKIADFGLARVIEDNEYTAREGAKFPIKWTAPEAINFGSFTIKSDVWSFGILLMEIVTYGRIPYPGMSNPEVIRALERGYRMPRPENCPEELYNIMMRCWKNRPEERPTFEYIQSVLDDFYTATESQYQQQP
468 kinases including some pathogenic mutants (Homo sapiens, UniProt O95747), sequence (O95747 whole entry, change not shown): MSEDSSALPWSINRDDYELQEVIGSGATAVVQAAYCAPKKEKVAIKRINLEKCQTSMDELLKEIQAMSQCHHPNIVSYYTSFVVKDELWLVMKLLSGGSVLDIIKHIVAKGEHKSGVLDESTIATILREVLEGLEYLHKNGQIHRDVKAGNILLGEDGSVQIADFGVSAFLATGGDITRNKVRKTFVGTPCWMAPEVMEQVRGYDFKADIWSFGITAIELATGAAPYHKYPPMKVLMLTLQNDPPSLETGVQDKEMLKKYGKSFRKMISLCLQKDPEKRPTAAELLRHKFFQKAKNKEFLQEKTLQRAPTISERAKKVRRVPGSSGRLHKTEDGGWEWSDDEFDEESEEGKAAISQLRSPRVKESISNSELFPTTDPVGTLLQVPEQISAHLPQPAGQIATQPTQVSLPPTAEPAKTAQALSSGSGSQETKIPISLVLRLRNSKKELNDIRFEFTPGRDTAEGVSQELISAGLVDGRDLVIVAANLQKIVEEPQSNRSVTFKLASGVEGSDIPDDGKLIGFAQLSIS
468 kinases including some pathogenic mutants (Homo sapiens, UniProt Q8NFD2), sequence (Q8NFD2 whole entry, stated change not applied): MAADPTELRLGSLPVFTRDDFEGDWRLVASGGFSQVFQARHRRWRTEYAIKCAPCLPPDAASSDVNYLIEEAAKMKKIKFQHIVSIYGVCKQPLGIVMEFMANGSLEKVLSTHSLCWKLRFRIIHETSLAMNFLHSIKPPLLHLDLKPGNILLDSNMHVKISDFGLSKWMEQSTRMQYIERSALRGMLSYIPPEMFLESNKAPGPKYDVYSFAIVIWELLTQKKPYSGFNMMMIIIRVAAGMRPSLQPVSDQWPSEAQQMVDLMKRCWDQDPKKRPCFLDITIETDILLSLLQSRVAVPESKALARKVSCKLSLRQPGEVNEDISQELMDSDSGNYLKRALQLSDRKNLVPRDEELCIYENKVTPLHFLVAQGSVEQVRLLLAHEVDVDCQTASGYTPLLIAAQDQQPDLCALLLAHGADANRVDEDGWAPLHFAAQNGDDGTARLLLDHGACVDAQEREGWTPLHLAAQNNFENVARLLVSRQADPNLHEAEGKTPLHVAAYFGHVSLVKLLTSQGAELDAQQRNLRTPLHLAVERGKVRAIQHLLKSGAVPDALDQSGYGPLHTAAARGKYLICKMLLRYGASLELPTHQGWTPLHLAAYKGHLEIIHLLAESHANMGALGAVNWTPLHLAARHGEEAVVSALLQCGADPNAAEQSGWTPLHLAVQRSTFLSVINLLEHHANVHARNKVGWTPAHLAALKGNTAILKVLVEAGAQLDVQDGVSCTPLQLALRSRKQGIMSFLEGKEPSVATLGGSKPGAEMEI
468 kinases including some pathogenic mutants (Homo sapiens, UniProt Q8N5S9), sequence (Q8N5S9 whole entry, change not shown): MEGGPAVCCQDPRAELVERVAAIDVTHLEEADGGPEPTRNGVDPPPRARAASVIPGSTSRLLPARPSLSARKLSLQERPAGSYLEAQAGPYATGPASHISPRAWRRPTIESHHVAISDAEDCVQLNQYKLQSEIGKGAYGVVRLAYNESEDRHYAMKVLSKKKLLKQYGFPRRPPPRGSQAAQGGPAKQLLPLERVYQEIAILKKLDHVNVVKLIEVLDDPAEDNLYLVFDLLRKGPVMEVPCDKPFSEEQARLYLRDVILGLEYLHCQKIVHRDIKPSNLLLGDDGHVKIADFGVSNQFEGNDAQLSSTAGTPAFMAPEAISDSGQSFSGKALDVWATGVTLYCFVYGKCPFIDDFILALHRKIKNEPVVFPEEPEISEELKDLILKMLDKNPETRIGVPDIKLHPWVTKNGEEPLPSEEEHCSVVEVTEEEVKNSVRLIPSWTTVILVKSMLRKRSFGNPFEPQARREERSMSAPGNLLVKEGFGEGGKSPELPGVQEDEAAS
468 kinases including some pathogenic mutants (Homo sapiens, UniProt Q96PN8), sequence (Q96PN8 whole entry, change not shown): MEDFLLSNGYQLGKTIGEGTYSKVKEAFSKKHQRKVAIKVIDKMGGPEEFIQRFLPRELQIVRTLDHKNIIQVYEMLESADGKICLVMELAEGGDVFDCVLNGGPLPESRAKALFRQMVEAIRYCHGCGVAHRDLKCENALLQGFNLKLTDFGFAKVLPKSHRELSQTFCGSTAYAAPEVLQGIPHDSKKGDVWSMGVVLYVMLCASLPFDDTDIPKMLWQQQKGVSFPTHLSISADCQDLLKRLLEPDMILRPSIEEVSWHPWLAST

**Q.** What does the source list for `CN1C(=O)[C@@H](N2CCc3c(nn(Cc4ccccc4)c3C(N)=O)C2=O)COc2cc(Cl)ccc21` [Compound 10, (S)-2-benzyl-6-(8-chloro-5-methyl-4-oxo-2,3,4,5-tetrahydrobenzo[b][1,4]oxazepin-3-yl)-7-oxo-4,5,6,7-tetrahydro-2H-pyrazolo[3,4-c]pyridine-3-carboxamide]?
**A.** remaining activity at 1 µM [1]: 100%; remaining activity at 1 µM [2]: 100%; remaining activity at 1 µM [3]: 100%; remaining activity at 0.1 µM [4]: 77%; Percent Control ([5]; listed as LIJTF500025): 88%; remaining activity at 0.1 µM ([5]; read-out: Percent Control): 71%; remaining activity at 0.1 µM [6]: 65%; remaining activity at 0.1 µM [7]: 88%; remaining activity at 1 µM [8]: 100%; remaining activity at 0.1 µM [9]: 100%; remaining activity at 0.1 µM [10]: 79%; remaining activity at 0.1 µM [11]: 95%; remaining activity at 0.1 µM [12]: 89%; remaining activity at 0.1 µM [13]: 100%; remaining activity at 0.1 µM [14]: 70%; remaining activity at 0.1 µM [15]: 100%; remaining activity at 1 µM [16]: 100%; remaining activity at 0.1 µM [17]: 87%; remaining activity at 0.1 µM [18]: 61%; remaining activity at 0.1 µM [19]: 89%; remaining activity at 0.1 µM [20]: 80%; remaining activity at 0.1 µM [21]: 79%; remaining activity at 0.1 µM ([22]; JAK1(JH1domain-catalytic) (Entrez JAK1), 100 nM): 83%; remaining activity at 0.1 µM [22]: 97%; remaining activity at 1 µM [23]: 100%; remaining activity at 0.1 µM [24]: 97%; remaining activity at 0.1 µM [25]: 86%; remaining activity at 0.1 µM [26]: 75%; remaining activity at 1 µM [27]: 100%; remaining activity at 1 µM [28]: 100%
